Assay results: ChEMBL document CHEMBL5634086, “Small molecule inhibitors of NLRP3 inflammasome and GSK-3β in the management of traumatic brain injury: A review” (Eur J Med Chem, 2023)

What was measured:
[1] = molecular target: T1, Glycogen synthase kinase-3 beta (Homo sapiens, UniProt P49841); test: Inhibition of GST-tagged GSK3beta (unknown origin)
[2] = molecular target: T1, Glycogen synthase kinase-3 beta; test: Inhibition of GSK3beta (unknown origin) expressed in Sf9 cells incubated for 30 mins in presence of [gamma32P]ATP by scintillation counting method
[3] = Inhibition of LPS/ATP induced IL-1beta release in human THP-1 cells at 10 uM pretreated with LPS for 3 hrs followed by compound addition for 1 hr prior to ATP addition for another 1 hr by ELISA; assay type: functional; set-up: scale not given: the % may be the effect or the level left; conditions: time 2 hrs
[4] = molecular target: NACHT, LRR and PYD domains-containing protein 3 (Homo sapiens, UniProt Q96P20); test: Inhibition of NLRP3 inflammasome in LPS-induced […] cells assessed as reduction in IL-1beta release preincubated for 1 hr followed by ATP addition and measured after 30 mins by ELISA; assay type: cell-based
NACHT, LRR and PYD domains-containing protein 3, sequence (Q96P20 whole entry, the tested form may be a part): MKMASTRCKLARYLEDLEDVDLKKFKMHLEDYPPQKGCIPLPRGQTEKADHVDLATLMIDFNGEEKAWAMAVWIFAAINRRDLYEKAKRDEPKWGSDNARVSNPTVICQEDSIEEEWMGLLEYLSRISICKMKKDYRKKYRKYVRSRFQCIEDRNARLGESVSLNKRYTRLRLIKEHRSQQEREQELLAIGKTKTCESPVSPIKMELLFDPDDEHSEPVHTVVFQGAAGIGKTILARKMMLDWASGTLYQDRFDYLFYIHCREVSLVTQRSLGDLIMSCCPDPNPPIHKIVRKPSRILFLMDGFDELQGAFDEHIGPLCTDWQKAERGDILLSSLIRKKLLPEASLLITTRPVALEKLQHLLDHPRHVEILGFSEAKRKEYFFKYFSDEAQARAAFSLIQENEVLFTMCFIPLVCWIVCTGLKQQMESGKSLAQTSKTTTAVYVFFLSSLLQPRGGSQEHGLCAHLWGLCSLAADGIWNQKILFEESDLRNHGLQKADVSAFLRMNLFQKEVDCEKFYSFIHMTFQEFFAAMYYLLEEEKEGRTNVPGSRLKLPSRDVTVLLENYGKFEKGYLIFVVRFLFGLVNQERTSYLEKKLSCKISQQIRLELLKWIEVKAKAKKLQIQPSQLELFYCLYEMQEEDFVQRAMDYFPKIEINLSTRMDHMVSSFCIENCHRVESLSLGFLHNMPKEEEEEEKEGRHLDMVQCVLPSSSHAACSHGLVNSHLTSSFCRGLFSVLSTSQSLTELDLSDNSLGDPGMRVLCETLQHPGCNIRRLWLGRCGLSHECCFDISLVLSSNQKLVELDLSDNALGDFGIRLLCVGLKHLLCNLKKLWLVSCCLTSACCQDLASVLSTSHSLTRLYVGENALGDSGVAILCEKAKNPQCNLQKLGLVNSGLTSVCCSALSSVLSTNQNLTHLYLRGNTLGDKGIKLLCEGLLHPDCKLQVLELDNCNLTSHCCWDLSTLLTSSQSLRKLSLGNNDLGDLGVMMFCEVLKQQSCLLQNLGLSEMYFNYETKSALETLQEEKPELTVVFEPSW

T1 sequence (P49841 whole entry): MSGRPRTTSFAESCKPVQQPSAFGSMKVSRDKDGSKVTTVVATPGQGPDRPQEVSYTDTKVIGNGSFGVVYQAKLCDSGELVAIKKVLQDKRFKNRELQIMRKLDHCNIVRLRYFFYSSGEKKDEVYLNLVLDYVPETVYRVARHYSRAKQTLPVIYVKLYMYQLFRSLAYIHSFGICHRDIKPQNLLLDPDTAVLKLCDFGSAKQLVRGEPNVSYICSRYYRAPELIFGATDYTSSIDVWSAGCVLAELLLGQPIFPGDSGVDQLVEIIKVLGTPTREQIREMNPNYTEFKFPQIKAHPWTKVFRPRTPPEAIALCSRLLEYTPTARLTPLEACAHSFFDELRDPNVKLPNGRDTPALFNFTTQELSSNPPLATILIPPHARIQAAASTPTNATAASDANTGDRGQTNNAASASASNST

## O=C1Cc2c([nH]c3ccc([N+](=O)[O-])cc23)-c2ncccc2N1
[1]
  IC50: 4 nM
[2]
  IC50: 4 nM

## c1cc2[nH]c(-c3cscn3)nc2cn1
[3]
  Activity: 30%

## O=c1[nH]c(-c2ccc([N+](=O)[O-])cc2)nc2ccccc12
[4]
  IC50: 5000 nM
